tested on: HCT116 cells; assay: Cell viability assay (CellTiter-Glo, 72 hours) in HCT116 human colorectal cancer cells; assay type: cell-based; conditions: Table 8; analogs of scaffold drawing 43 defined by R^2, R^3, X/Y, W; read-out: Activity (IC50 class, cell viability assay)
Experimental: Cell culture: The HCT116 cell line was obtained from ATCC and cultured in Dulbecco's Modified Eagle's Medium (DMEM)-high glucose (Sigma Aldrich #D5796) supplemented with 10% fetal bovine serum (FBS) (Sigma-Aldrich #F2442) and 2 mM L-Glutamine (Sigma Aldrich #G7513). Cells were cultured at 37° C. in 5% CO2. The identity of all cell lines was confirmed by short tandem repeat (STR) analysis and confirmed to be mycoplasma-free using a PCR based assay (Genatlantis).
Cell viability assay: In 96-well assay plates (Corning #2903), 2,000 cells were plated per well in 100 μL of medium and allowed to adhere overnight. The next day, compounds suspended in DMSO were dispensed to the assayed wells using a D300e Digital Dispenser (Tecan). All wells were normalized to 0.5% DMSO. 72 hours after incubation at 37° C. in 5% CO2, cell viability was assayed using an ATP-based luminescent viability assay, CellTiter-Glo (Promega #G8462). Substrate was mixed 1:1 with phosphate-buffered saline (PBS) supplemented with 1% Triton X-100, and 40 μL of this mixture was added to the assay wells. Plates were shaken on a microplate shaker for 10 minutes at room temperature. Luminescence (CellTiter-Glo) was recorded using a Synergy 2 microplate reader (BioTek). In Prism 9 software (GraphPad), ten-point dose response curves were plotted with baseline-correction to the vehicle control well, and IC50 values were calculated by curve fitting using asymmetric (five parameter), least squares fit.

Row | Compound | IC50
1 | C#CCN1C(=O)c2ccc(Cl)cc2Sc2cc(NC(=O)C3CC4(CC(=NO)C4)C3)cnc21 (stereo not shown) | < 500 nM
2 | CC#CCN1C(=O)c2ccccc2Sc2cc(NC(=O)C3CCCN3C)ccc21 (stereo not shown) | < 500 nM
3 | CC#CCN1C(=O)c2cc(F)ccc2Sc2cc(NC(=O)C3CC4(COC4)C3)ccc21 | < 500 nM
4 | CC#CCN1C(=O)c2ccccc2Sc2cc(NC(=O)C3CCNC3=O)ccc21 (stereo not shown) | 500 to 1000 nM
5 | CC#CCN1C(=O)c2cc(F)ccc2Sc2cc(NC(=O)C34CC(O)(C3)C4)ccc21 | < 500 nM
6 | CC#CCN1C(=O)c2ccc(F)cc2Sc2cc(NC(=O)c3ccc4oc(=O)n(C)c4c3)ccc21 | < 500 nM
7 | CC#CCN1C(=O)c2cc(F)ccc2Sc2cc(NC(=O)c3ccc4oc(=O)n(C)c4c3)ccc21 | < 500 nM
8 | CC#CCN1C(=O)c2ccccc2Sc2cc(NC(=O)C3CC4(CC(=NO)C4)C3)ccc21 (stereo not shown) | < 500 nM
9 | CC#CCN1C(=O)c2ccc(F)cc2Sc2cc(NC(=O)C3CC4(CC(=NO)C4)C3)ccc21 (stereo not shown) | < 500 nM
10 | CC#CCN1C(=O)c2cc(F)ccc2Sc2cc(NC(=O)C3CC4(CC(=NO)C4)C3)ccc21 (stereo not shown) | < 500 nM
11 | CC#CCN1C(=O)c2cc(F)ccc2Sc2cc(NC(=O)C3CC4(CC(=NOC)C4)C3)ccc21 (stereo not shown) | < 500 nM
12 | CC#CCN1C(=O)c2ccccc2Sc2cc(NC(=O)C3CCN(C)C3=O)ccc21 (stereo not shown) | 500 to 1000 nM
13 | CC#CCN1C(=O)c2ccc(F)cc2Sc2cc(NC(=O)c3ccc4scnc4c3)ccc21 | < 500 nM
14 | CC#CCN1C(=O)c2ccccc2Sc2cc(NC(=O)C3CCCO3)ccc21 (stereo not shown) | < 500 nM
15 | CC#CCN1C(=O)c2ccccc2Sc2cc(NC(=O)C3CCOC3)ccc21 (stereo not shown) | < 500 nM
16 | COCC1CC1C(=O)Nc1cnc2c(c1)Sc1ccccc1C(=O)N2CC#CC1CC1 (racemic) [—CH2CC^cPr; trans-2-MeOCH2-cPr; CH/CH; N] | < 500 nM
17 | COC[C@@H]1C[C@H]1C(=O)Nc1ccc2c(c1)Sc1cc(Cl)ccc1C(=O)N2CC#CCl (relative stereo) [—CH2CCCl; trans-2-MeOCH2-cPr; CCl/CH; CH] | < 500 nM
18 | C#CCN1C(=O)c2ccc(Cl)cc2Sc2cc(NC(=O)[C@@H]3C[C@H]3COC)ccc21 (relative stereo) [—CH2CCH; trans-2-MeOCH2-cPr; CCl/CH; CH] | < 500 nM
19 | CC#CCN1C(=O)c2ccc(Cl)cc2Sc2cc(NC(=O)[C@@H]3C[C@H]3CO)ccc21 (relative stereo) [—CH2CCMe; trans-2-HOCH2-cPr; CCl/CH; CH] | < 500 nM

Further lines, results first:

Row | IC50 | Compound
20 | < 500 nM | COC12CC(C(=O)Nc3cnc4c(c3)Sc3ccccc3C(=O)N4CC#CC(F)(F)F)(C1)C2
21 | < 500 nM | O=C(Nc1cnc2c(c1)Sc1ccccc1C(=O)N2CC#CC(F)(F)F)C1CC2(CC(=NO)C2)C1 (stereo not shown)
22 | < 500 nM | C#CCN1C(=O)c2ccc(Cl)cc2Sc2cc(NC(=O)C3CC4(CC(=NOC)C4)C3)cnc21 (stereo not shown)
23 | 1000 to 5000 nM | CC#CCN1C(=O)c2ccccc2Sc2cc(NC(=O)C3CCN(C)C3)ccc21 (stereo not shown)
24 | < 500 nM | CC#CCN1C(=O)c2ccc(F)cc2Sc2cc(NC(=O)C3CC4(CC(=NOC)C4)C3)ccc21 (stereo not shown)
25 | < 500 nM | CC#CCN1C(=O)c2ccccc2Sc2cc(NC(=O)C3CC4(CC(=O)C4)C3)ccc21
26 | < 500 nM | O=C(Nc1ccc2c(c1)Sc1cc(Cl)ccc1C(=O)N2CC#CCl)C1CC1CO (racemic) [—CH2CCCl; trans-2-HOCH2-cPr; CCl/CH; CH]
27 | < 500 nM | CC#CCN1C(=O)c2ccc(Cl)cc2Sc2cc(NC(=O)C3CC3CO)cnc21 (racemic) [—CH2CCMe; trans-2-HOCH2-cPr; CCI/CH; N]
28 | < 500 nM | CC#CCN1C(=O)c2cc(F)ccc2Sc2cc(NC(=O)C3CC3C(=O)OC)ccc21 (racemic) [—CH2CCMe; trans-2-MeO2C-cPr; CH/CF; CH]
29 | < 500 nM | C#CCN1C(=O)c2ccc(Cl)cc2Sc2cc(NC(=O)[C@@H]3C[C@H]3CO)ccc21 (relative stereo) [—CH2CCH; trans-2-HOCH2-cPr; CCI/CH; CH]
30 | < 500 nM | CC#CCN1C(=O)c2ccc(F)cc2Sc2cc(NC(=O)[C@@H]3C[C@H]3CO)cnc21 (relative stereo) [—CH2CCMe; trans-2-HOCH2-cPr; CF/CH; N]
31 | < 500 nM | CC#CCN1C(=O)c2cc(F)ccc2Sc2cc(NC(=O)[C@@H]3C[C@H]3CO)ccc21 (relative stereo) [—CH2CCMe; trans-2-HOCH2-cPr; CH/CF; CH]
32 | < 500 nM | CC#CCN1C(=O)c2cc(F)ccc2Sc2cc(NC(=O)[C@@H]3C[C@H]3CO)cnc21 (relative stereo) [—CH2CCMe; trans-2-HOCH2-cPr; CH/CF; N]

same assay, conditions: Table 9; HCT116, 72 hours; read-out: Activity

Row | Compound | IC50
33 | O=C(Nc1ccc2c(c1)Cc1ccccc1C(=O)N2CC#CC1CC1)C1CC2(CC(=NO)C2)C1 (stereo not shown) | < 500 nM
34 | CC#CCN1C(=O)c2ccccc2C(C)c2cc(NC(=O)C34CC(O)(C3)C4)ccc21 (stereo not shown) | < 500 nM
35 | CC#CCN1C(=O)c2ccccc2Cc2cc(NC(=O)C34CC(OC)(C3)C4)ccc21 | < 500 nM
36 | CC#CCN1C(=O)c2ccccc2C(C#N)c2cc(NC(=O)C34CC(OC)(C3)C4)ccc21 (stereo not shown) | < 500 nM
37 | CC#CCN1C(=O)c2ccccc2C(C)c2cc(NC(=O)C34CC(OC)(C3)C4)ccc21 (stereo not shown) | < 500 nM
38 | CC#CCN1C(=O)c2ccccc2C(C#N)c2cc(NC(=O)C3CC4(CC(=NO)C4)C3)ccc21 (stereo not shown) | < 500 nM
39 | CC#CCN1C(=O)c2ccccc2C(C)c2cc(NC(=O)C3CC4(CC(=NO)C4)C3)ccc21 (stereo not shown) | < 500 nM
40 | CC#CCN1C(=O)c2ccccc2C(C)(O)c2cc(NC(=O)C3CC4(CC(=NO)C4)C3)ccc21 (stereo not shown) | < 500 nM
41 | CC#CCN1C(=O)c2ccccc2C(C)c2cc(NC(=O)CC3COC3)ccc21 (stereo not shown) | < 500 nM
42 | CC#CCN1C(=O)c2ccccc2C(C)c2cc(NC(=O)C3CCOC3)ccc21 (stereo not shown) | < 500 nM
43 | CC#CCN1C(=O)c2ccccc2C(C)c2cc(NC(=O)C3CC3CO)ccc21 (stereo not shown) | < 500 nM
44 | O=C(Nc1ccc2c(c1)Cc1ccccc1C(=O)N2CC#CC1CC1)C1CC2(COC2)C1 | < 500 nM
45 | CC1c2ccccc2C(=O)N(CC#CC2CC2)c2ccc(NC(=O)C3CC4(COC4)C3)cc21 (stereo not shown) | < 500 nM
46 | COC12CC(C(=O)Nc3ccc4c(c3)C(C)c3ccccc3C(=O)N4CC#CC3CC3)(C1)C2 (stereo not shown) | < 500 nM
47 | CC1c2ccccc2C(=O)N(CC#CC2CC2)c2ccc(NC(=O)C3CC4(CC(O)C4)C3)cc21 (stereo not shown) | < 500 nM
48 | CC1c2ccccc2C(=O)N(CC#CC2CC2)c2ccc(NC(=O)C3CC4(CC(=O)C4)C3)cc21 (stereo not shown) | < 500 nM
49 | CC1c2ccccc2C(=O)N(CC#CC2CC2)c2ccc(NC(=O)C3CCCO3)cc21 (stereo not shown) | < 500 nM
50 | CC1c2ccccc2C(=O)N(CC#CC2CC2)c2ccc(NC(=O)C3CCOC3)cc21 (stereo not shown) | < 500 nM
51 | CC1c2ccccc2C(=O)N(CC#CC2CC2)c2ccc(NC(=O)[C@H]3C[C@H](O)C3)cc21 (stereo partly shown) | < 500 nM
52 | COC12CC(C(=O)Nc3ccc4c(c3)C(C#N)c3ccccc3C(=O)N4CC#CC3CC3)(C1)C2 (stereo not shown) | < 500 nM
53 | CC#CCN1C(=O)c2ccccc2C(C)c2cc(NC(=O)[C@@H]3C[C@H]3C(=O)OC)ccc21 (relative stereo) | < 500 nM
54 | N#CC1c2ccccc2C(=O)N(CC#CC2CC2)c2ccc(NC(=O)[C@H]3C[C@@H]3CO)cc21 (relative stereo) | < 500 nM

Other lines, results leading:

Row | IC50 | Compound
55 | < 500 nM | COC12CC(C(=O)Nc3ccc4c(c3)C(C#N)c3ccccc3C(=O)N4CC#CCF)(C1)C2 (stereo not shown)
56 | < 500 nM | COc1ccc(C(=O)Nc2ccc3c(c2)C(C)(O)c2ccccc2C(=O)N3CC#CCl)cn1 (stereo not shown)
57 | < 500 nM | CC#CCN1C(=O)c2ccccc2Cc2cc(NC(=O)C34CC(O)(C3)C4)ccc21
58 | < 500 nM | CC#CCN1C(=O)c2ccccc2C(C)c2cc(NC(=O)C3CC4(CC(O)C4)C3)ccc21 (stereo not shown)
59 | < 500 nM | CC#CCN1C(=O)c2ccccc2C(C)(O)c2cc(NC(=O)c3ccc(OC)nc3)ccc21 (stereo not shown)
60 | < 500 nM | CC#CCN1C(=O)c2ccccc2Cc2cc(NC(=O)C3CC4(CC(=NO)C4)C3)ccc21 (stereo not shown)
61 | < 500 nM | CC#CCN1C(=O)c2ccccc2C(C)c2cc(NC(=O)C3CC4(CC(=O)C4)C3)ccc21 (stereo not shown)
62 | < 500 nM | CO[C@H]1C[C@H](C(=O)Nc2ccc3c(c2)C(C)(O)c2ccccc2C(=O)N3CC#CC2CC2)C1 (stereo partly shown)
63 | < 500 nM | CC1c2ccccc2C(=O)N(CC#CC2CC2)c2ccc(NC(=O)C3CC4(CC(=NO)C4)C3)cc21 (stereo not shown)
64 | < 500 nM | CC1c2ccccc2C(=O)N(CC#CC2CC2)c2ccc(NC(=O)CC3COC3)cc21 (stereo not shown)
65 | < 500 nM | COC1CC(C(=O)Nc2ccc3c(c2)C(C)c2ccccc2C(=O)N3CC#CC2CC2)C1 (stereo not shown)
66 | < 500 nM | COCC1CC1C(=O)Nc1ccc2c(c1)C(C)(O)c1ccccc1C(=O)N2CC#CC1CC1 (racemic)
67 | < 500 nM | CC#CCN1C(=O)c2ccccc2C(C)c2cc(NC(=O)[C@@H]3C[C@H]3COC)ccc21 (relative stereo)
68 | < 500 nM | CC1c2ccccc2C(=O)N(CC#CC2CC2)c2ccc(NC(=O)[C@@H]3C[C@H]3CO)cc21 (relative stereo)
69 | < 500 nM | CC1(O)c2ccccc2C(=O)N(CC#CC2CC2)c2ccc(NC(=O)[C@@H]3C[C@H]3CO)cc21 (relative stereo)

same assay, conditions: cell viability assay; Table 10 analogs of scaffold drawing 45 defined by R2, R3, X/Y, W; read-out: Activity

Row | IC50 | Compound
70 | < 500 nM | COC12CC(C(=O)Nc3cnc4c(c3)Sc3ccccc3C(=O)N4CC#CCF)(C1)C2
71 | < 500 nM | CC#CCN1C(=O)c2ccccc2Sc2cc(NC(=O)C34CC(OC)(C3)C4)ccc21
72 | < 500 nM | CC#CCN1C(=O)c2ccc(Cl)cc2Sc2cc(NC(=S)C34CC(OC)(C3)C4)ccc21
73 | < 500 nM | CC#CCN1C(=O)c2ccc(Cl)cc2Sc2cc(NC(=O)C3CC4(CC(O)C4)C3)ccc21 (stereo not shown)
